US11534449B2, “Tricin derivatives and compositions thereof for cancer treatment” (NEOCAGE SL, priority 2019, dated 2022)
Entries after “also recorded” stand apart in the source; their conditions may differ.

Columns and labels:
[1] = tested on: CT26 cells; test: Subcutaneous CRC model, CT26 cells in BALB/c mice; format: in vivo, mouse; conditions: 50 mg/kg i.p., 3 times per week over 3 weeks; s.c. CT26 tumors in BALB/c mice; compared with ANTARTINA and tricin
Text: FIG. 4 depicts cell size (mm^3) in mice of CT26 tumors after CT26 cell line injection into mice. […] The bottom panel provides a summary of all results in one graph.
Mouse CT26 tumor cell line, an undifferentiated murine colorectal carcinoma (CRC) cell line established from N-nitroso-N-methylurethan-induced transplantable tumor in BALB/c (H-2d) mice, BNL cells (an hepatoma cell line) were used in the studies below and can be obtained from the University of Navarra, Spain. Human cell lines were from American Type Culture Collection (ATCC, Manassas, Va., US), including LoVo (ATCC-CCL229), ASG (ATCC-CCRL-79) and lung fibroblast Wi38 (ATCC-CCL75). All lines were tested for mycoplasma and cultured in complete DMEM (GIBCO, Themo Fisher Scientific, mM glutamine, 100 U/mL penicillin, […] streptomycin, and 10% heat inactivated fetal bovine serum (FBS, GIBCO, Thermo Fisher Scientific) and incubated 37° C. in 5% CO2.
Subcutaneous CRC model: Six-to-eight-week-old male BALB/c mice were used. CT26 cells were injected at a dose of 5×10^5 cells subcutaneously (s.c.) into the right flank of BALB/c mice (day 0). Tumors were allowed to reach ^˜90 mm^3 in size before treatment. […] Tumor growth was assessed by caliper measurement. Tumor volume was calculated using the following formula: tumor volume (mm^3)=length×(width) 2/2.

[2] = tested on: Hepa129 cells; test: Orthotopic hepatocellular carcinoma model associated with fibrosis, Hepa129 cells in C3H/He mice; format: in vivo, mouse; conditions: 50 mg/kg, 3 times per week from day 5; quantified fifteen days after tumor implantation; vs saline
Protocol: On day 28, mice were anesthetized and orthotopic tumors were established by sub-capsular inoculation of 1.25×10^5 Hepa129 cells into the left liver lobe by laparotomy (day 0). Five days after tumor implantation, mice were distributed in groups (n=6-8/group) and received: i) saline (control, FIG. 5A, left panel); ii) acetylated ANTARTINA® (50 mg/kg, 3 times per week, FIG. 5A, right panel). Fifteen days after tumor implantation, mice were sacrificed and tumor volume was quantified, as depicted in FIG. 5B (control, left panel; acetylated ANTARTINA®, right panel).
Experimental model of HCC associated with fibrosis: C3H/He mice were treated intraperitoneally (i.p) with 200 mg/kg of thioacetamide (TAA) (Sigma-Aldrich, St. Louis, USA) 3 times a week for 4 weeks. On day 28, mice were anesthetized and orthotopic tumors were established by sub-capsular inoculation of 1.25×10^5 Hepa129 cells into the left liver lobe by laparotomy (day 0). Five days after tumor implantation, mice were distributed in groups (n=6-8/group) and received: i) saline (control); ii) acetylated ANTARTINA® (50 mg/kg, 3 times per week). (See, FIG. 5A). Fifteen days after tumor implantation, mice were sacrificed and tumor volume was quantified. (See, FIG. 5B).

[3] = tested on: CT26 cells; test: Murine CRC model (CT26 cells) in BALB/c mice, combination with AdIL-12 gene therapy; format: in vivo, mouse; conditions: mice with regression/mice in group; ANTARTINA 50 mg/kg 3 doses per week; AdIL12 10^9 TCID50 intratumorally, one dose at day 15
Text: Mouse CT26 cells (5×10^5) were subcutaneously inoculated on day 0. On day 7, when tumors reached a diameter of 5-7 mm, animals were divided into 4 groups: saline, ANTARTINA®, AdIL12, and the combination of ANTARTINA® and AdIL-12. Tumor volume is shown in the left panel vs. days after CT26 inoculation. Excised tumors are depicted in the right panel.
Adenovirus IL-12 constructs are as previously reported. (Mazzolini et al., Cancer Gene Therapy, 6(6):514-522, 1999).
This is a murine model of CRC (CT26 cells) established in BALB/c mice. Mouse CT26 cells (5×10^5) were subcutaneously inoculated on day 0. On day 7, when tumors reached a diameter of 5-7 mm, animals were divided into 4 groups: saline, ANTARTINA® 50 mg/kg, 3 doses per week (systemically), AdIL12 (adenovirus encoding murine IL-12, dose: 10^9 TCID50, intratumorally, one dose at day 15 after tumor inoculation), and the combination of ANTARTINA® and AdIL-12. Tumor volume was measured with a caliper 3 times per week. […] Complete tumor regressions: saline […], AdIL-12 1/5, Antartina 2/5, and combined therapy: 4/5. (FIG. 6).

[4] = tested on: human CRC cell; test: In vitro human CRC cell proliferation; format: cell-based
Text: (§1) In colorectal carcinoma (CRC) patients, distant metastatic disease is present at initial diagnosis in nearly 25% of patients. The majority of patients with metastatic CRC have an incurable disease; therefore, new therapies are needed to address this cancer. […] ANTARTINA® is an antitumor agent isolated from Deschampsia antarctica Desv. In that study, the aim was to evaluate the antitumor properties of ANTARTINA® in CRC models. Human and murine CRC cell lines were employed to investigate proliferation, apoptosis, and cell cycle effects of ANTARTINA® therapy in vitro. Immune response of ANTARTINA® against cancer cells in the CRC model was also investigated using a cytotoxic T lymphocyte (CTL) assay, analyzing dendritic cell activation and intratumor T cell sub-population, and by tumor re-challenge experiments.

[5] = tested on: CRC; test: Immunocompetent CRC mouse model; format: in vivo
Text: as §1

[6] = tested on: CRC; test: Cytotoxic T lymphocyte (CTL) assay; format: cell-based
Text: as §1

[7] = tested on: dendritic cell; test: Dendritic cell activation; format: cell-based
Text: as §1

COc1cc(-c2cc(=O)c3c(O)cc(O[C@@H]4O[C@H](COC(C)=O)[C@H](OC(C)=O)[C@H](OC(C)=O)[C@H]4OC(C)=O)cc3o2)cc(OC)c1O (stereo in doubt)
melting point: 117.2 to 121.8 °C

COc1cc(-c2cc(=O)c3c(OC(C)=O)cc(O[C@@H]4O[C@H](COC(C)=O)[C@@H](OC(C)=O)[C@H](OC(C)=O)[C@H]4OC(C)=O)cc3o2)cc(OC)c1OC(C)=O [acetylated ANTARTINA®, Tricin 7-O-β-D-glucopyranoside, Per Acetylated]
tumor size (antitumoral effect) [1]: superior antitumoral effect in comparison with native ANTARTINA®; also recorded: clearly and markedly reduced tumor size at a higher rate than observed for any of the other tested agents | tumor volume [2]: markedly reduced the tumor volume | melting point: 239.1 to 241.8 °C

COc1cc(-c2cc(=O)c3c(O)cc(O[C@@H]4O[C@H](CO)[C@@H](O[C@@H]5O[C@H](CO)[C@H](O)[C@H](O)[C@H]5O)[C@H](O)[C@H]4O)cc3o2)cc(OC)c1O (stereo in doubt)
melting point: 275.4 to 279.2 °C

COc1cc(-c2cc(=O)c3c(O)cc(O[C@@H]4O[C@H](CO)[C@@H](O)[C@H](O)[C@H]4O)cc3o2)cc(OC)c1O [ANTARTINA®, tricin 7-O-β-D-glucopyranoside]
complete tumor regressions [3]: 2/5 | in vitro human CRC cell proliferation [4]: inhibits | toxic effects ([5]; at the doses employed): No toxic effects were observed | animal survival rate ([5]; mouse, in vivo): increased | complete tumor regressions ([5]; mouse, in vivo): > 30 % of mice | tumor growth and liver metastases ([5]; mouse, in vivo): potently inhibited | tumor immunogenicity ([5]; mouse, in vivo): increased tumor immunogenicity | antitumor immunity (tumor re-challenge) ([5]; tumor re-challenge experiments): long lasting antitumor immunity | specific cytotoxic T cell response against CRC [6]: induced a potent specific cytotoxic T cell response | dendritic cell activation [7]: stimulated dendritic cell activation

COc1cc(-c2cc(=O)c3c(O)cc(O[C@@H]4O[C@H](CO)[C@H](O)[C@H](O)[C@H]4O)cc3o2)cc(OC)c1O (stereo in doubt)
melting point: 260.2 to 263.3 °C

COc1cc(-c2cc(=O)c3c(O)cc(O[C@@H]4O[C@H](CO)[C@@H](O[C@@H]5O[C@H](CO)[C@@H](O)[C@H](O)[C@H]5O)[C@H](O)[C@H]4O)cc3o2)cc(OC)c1O (stereo in doubt)
melting point: 243.2 to 246.5 °C
